# Assay results published in US12691112B2, “FGFR tyrosine kinase inhibitors for the treatment of urothelial carcinoma” (Janssen Pharmaceutica NV, priority 2019, dated 2026).
# “And” between values parts separate entries of the source, which are not always exact repeats. Equal values may be shown once.
# What was measured:
# [1] = test system: metastatic or surgically unresectable urothelial cancer harboring select FGFR genetic alterations; experiment: Phase 2 study NCT02365597: progression-free survival (Kaplan-Meier), investigator assessment; type: in vivo, human
# Protocol: The term “progression-free survival” is defined as the time from first dose to date of documented evidence of disease progression or death, whichever comes first.
# (§1) Patients were contacted every 12 weeks for survival assessment.
# (§2) The study was designed to enroll 180 patients with specified FGFR alterations. Of these, ≥88 were required in the selected regimen. […] Responses were assessed by investigators and an independent radiological review committee. Progression-free survival and overall survival were estimated using Kaplan-Meier product limit method. Data from patients who were progression free and alive or with unknown status were censored at last tumor assessment. Efficacy end points were analysed at primary analysis cut-off.
# [2] = test system: metastatic or surgically unresectable urothelial cancer harboring select FGFR genetic alterations; experiment: Phase 2 study NCT02365597: tumor response per independent radiographic review committee (BIRC); type: in vivo, human
# Protocol: as §1, §2
# [3] = human, in vivo
# [4] = Excretion after single oral dose of radiolabeled erdafitinib; type: in vivo
# [5] = FGFR fusions (excluding mutations), 6 mg QD
# [6] = FGFR fusions (excluding mutations), 8 mg QD
# [7] = FGFR fusions (excluding mutations), 10 mg 7 on/7 off
# [8] = FGFR fusions (excluding mutations), Total
# [9] = FGFR mutations (excluding fusions), 6 mg QD
# [10] = FGFR mutations (excluding fusions), 8 mg QD
# [11] = FGFR mutations (excluding fusions), 10 mg 7 on/7 off
# [12] = FGFR mutations (excluding fusions), Total
# [13] = FGFR mutations and fusions, 6 mg QD
# [14] = FGFR mutations and fusions, 10 mg 7 on/7 off
# [15] = FGFR mutations and fusions, Total
# [16] = Regimen 3, 8 mg continuous (n=99)
# [17] = Regimen 3, chemotherapy-refractory patients, N = 87
smiles,measurement,setting,value
"COc1cc(OC)cc(N(CCNC(C)C)c2ccc3ncc(-c4cnn(C)c4)nc3c2)c1 [erdafitinib, N-(3,5-dimethoxy-phenyl)-N′-(1-methylethyl)-N-[3-(1-methyl-1H-pyrazol-4-yl)quinoxalin-6-yl]ethane-1,2-diamine]",6-month progression-free survival rate (95% CI),[1]; [5],"0.40 (0.12, 0.67)"
same,12-month progression-free survival rate (95% CI),[1]; [5],"0.20 (0.03, 0.47)"
same,18-month progression-free survival rate (95% CI),[1]; [5],"0.10 (0.01, 0.36)"
same,"Progression-free survival, Median (95% CI)",[1]; [5],"5.54 (0.46, 11.10) months"
same,"Progression-free survival, Q1",[1]; [5],4.50 months
same,6-month progression-free survival rate (95% CI),[1]; [6],"0.25 (0.10, 0.44)"
same,12-month progression-free survival rate (95% CI),[1]; [6],"0.15 (0.04, 0.33)"
same,18-month progression-free survival rate (95% CI),[1]; [6],"0 (NE, NE)"
same,"Progression-free survival, Median (95% CI)",[1]; [6],"2.76 (1.51, 5.45) months"
same,"Progression-free survival, Q1",[1]; [6],1.35 months
same,"Progression-free survival, Q3",[1]; [6],6.64 months
same,6-month progression-free survival rate (95% CI),[1]; [7],"0 (NE, NE)"
same,12-month progression-free survival rate (95% CI),[1]; [7],"0 (NE, NE)"
same,18-month progression-free survival rate (95% CI),[1]; [7],"0 (NE, NE)"
same,"Progression-free survival, Median (95% CI)",[1]; [7],"2.09 (1.41, 2.76) months"
same,"Progression-free survival, Q1",[1]; [7],1.41 months
same,"Progression-free survival, Q3",[1]; [7],2.76 months
same,6-month progression-free survival rate (95% CI),[1]; [8],"0.28 (0.15, 0.44)"
same,12-month progression-free survival rate (95% CI),[1]; [8],"0.15 (0.05, 0.29)"
same,18-month progression-free survival rate (95% CI),[1]; [8],"0.05 (0.00, 0.19)"
same,"Progression-free survival, Median (95% CI)",[1]; [8],"4.27 (2.56, 5.52) months"
same,"Progression-free survival, Q1",[1]; [8],1.51 months
same,"Progression-free survival, Q3",[1]; [8],7.00 months
same,6-month progression-free survival rate (95% CI),[1]; [9],"0.22 (0.12, 0.33)"
same,12-month progression-free survival rate (95% CI),[1]; [9],"0.07 (0.02, 0.16)"
same,18-month progression-free survival rate (95% CI),[1]; [9],"0.05 (0.01, 0.14)"
same,"Progression-free survival, Median (95% CI)",[1]; [9],"5.09 (2.83, 5.42) months"
same,"Progression-free survival, Q1",[1]; [9],1.77 months
same,"Progression-free survival, Q3",[1]; [9],5.55 months
same,6-month progression-free survival rate (95% CI),[1]; [10],"0.41 (0.29, 0.53)"
same,12-month progression-free survival rate (95% CI),[1]; [10],"0.15 (0.06, 0.27)"
same,"Progression-free survival, Median (95% CI)",[1]; [10],"5.55 (4.83, 7.26) months"
same,"Progression-free survival, Q1",[1]; [10],2.83 months
same,"Progression-free survival, Q3",[1]; [10],8.44 months
same,6-month progression-free survival rate (95% CI),[1]; [11],"0.25 (0.10, 0.43)"
same,12-month progression-free survival rate (95% CI),[1]; [11],"0.17 (0.05, 0.34)"
same,18-month progression-free survival rate (95% CI),[1]; [11],"0.08 (0.01, 0.23)"
same,"Progression-free survival, Median (95% CI)",[1]; [11],"4.93 (2.73, 5.55) months"
same,"Progression-free survival, Q1",[1]; [11],2.69 months
same,"Progression-free survival, Q3",[1]; [11],7.06 months
same,6-month progression-free survival rate (95% CI),[1]; [12],"0.31 (0.24, 0.39)"
same,12-month progression-free survival rate (95% CI),[1]; [12],"0.12 (0.07, 0.19)"
same,18-month progression-free survival rate (95% CI),[1]; [12],"0.06 (0.03, 0.12)"
same,"Progression-free survival, Median (95% CI)",[1]; [12],"5.36 (4.21, 5.52) months"
same,"Progression-free survival, Q1",[1]; [12],2.73 months
same,"Progression-free survival, Q3",[1]; [12],8.25 months
same,6-month progression-free survival rate (95% CI),[1]; [13],"0.50 (0.06, 0.84)"
same,12-month progression-free survival rate (95% CI),[1]; [13],"0.50 (0.06, 0.84)"
same,"Progression-free survival, Median (95% CI)",[1]; [13],"9.10 (0.39, NE) months"
same,"Progression-free survival, Q1",[1]; [13],"2.97, NE months"
same,6-month progression-free survival rate (95% CI),[1]; [14],"0 (NE, NE)"
same,12-month progression-free survival rate (95% CI),[1]; [14],"0 (NE, NE)"
same,18-month progression-free survival rate (95% CI),[1]; [14],"0 (NE, NE)"
same,"Progression-free survival, Median (95% CI)",[1]; [14],"5.45 (1.45, 5.52) months"
same,"Progression-free survival, Q1",[1]; [14],1.45 months
same,"Progression-free survival, Q3",[1]; [14],5.52 months
same,6-month progression-free survival rate (95% CI),[1]; [15],"0.29 (0.04, 0.61)"
same,12-month progression-free survival rate (95% CI),[1]; [15],"0.29 (0.04, 0.61)"
same,"Progression-free survival, Median (95% CI)",[1]; [15],"5.52 (0.39, 12.65) months"
same,"Progression-free survival, Q1",[1]; [15],1.45 months
same,"Progression-free survival, Q3",[1]; [15],12.65 months
same,Median (95% CI) progression-free survival per investigator assessment,"[1]; Regimen 1, 10 mg intermittent",4.8 (2.7 to 5.5) months
same,Progression-free survival rate at 12 months,"[1]; Regimen 1, 10 mg intermittent",18%
same,Median (95% CI) progression-free survival per investigator assessment,"[1]; Regimen 2, 6 mg continuous",5.3 (4.1 to 5.5) months
same,Progression-free survival rate at 12 months,"[1]; Regimen 2, 6 mg continuous",11%
same,Progression-free survival rate at 12 months,"[1]; Regimen 3, 8 mg continuous",19%
same,median progression-free survival,"[1]; Regimen 3, 8 mg continuous",5.5 months
same,Complete response rate per independent radiographic review committee,[2]; [16],3 (3.0) %
same,Objective response rate per independent radiographic review committee,[2]; [16],34.3% and 34 (34.3) %
same,Partial response per independent radiographic review committee,[2]; [16],31 (31.3) %
same,"Complete response (CR), BIRC assessment",[2]; [17],2.3%
same,"Median DoR (95% CI), BIRC assessment",[2]; [17],"5.4 (4.2, 6.9) months"
same,"ORR (95% CI), BIRC assessment",[2]; [17],"32.2% and 32.2 (22.4, 42.0) %"
same,"Partial response (PR), BIRC assessment",[2]; [17],29.9%
same,"ORR (95% CI), BIRC assessment","[2]; Regimen 3, chemotherapy-refractory, FGFR3 fusion, N = 18","11.1 (0, 25.6) %"
same,circulating metabolites in plasma,[3],no circulating metabolites
same,exposure (Cmax and AUC) versus dose,[3],increased proportionally
same,mean total apparent clearance (CL/F),[3],0.362 L/h
same,pharmacokinetics in specific populations,[3],No clinically meaningful trends
same,time to steady state,[3],2 weeks
same,dose recovered in feces,[4],approximately 69%
same,dose recovered in feces as unchanged,[4],19%
same,dose recovered in urine,[4],19%
same,dose recovered in urine as unchanged,[4],13%
